Test results reported in patent publication US20060173066A1, “Remedy for diabetes” (Kyowa Hakko Kogyo Co., Ltd., priority 2003, published 2006).

Key:
[1] = test system: KK-Ay/Ta Jcl mice of a type 2 diabetic model; test: Example 2: serum-insulin level after 18 hours fasting in mice fed CE-2 feed with 1% by weight of test substance; type: in vivo; settings: for Serum-Insulin Level: 11th day after 18 hours fasting, mean ± standard error, n=5
Description: (§1) KK-Ay/Ta Jcl mice (Clea Japan, Inc.; male;,six weeks age) (15 mice) of a type 2 diabetic model were divided into three groups each comprising five mice and named group 1 to group 3.
(§2) The mice of the groups 1 to 3 were made free to take feed and water. A commercially available feed CE-2 (manufactured by Clea Japan, Inc.) was ingested to the mice of group 1. CE-2 to which 1% by weight of trans-4-hydroxy-L-proline ethyl ester (manufactured by Sanyo Chemical Laboratory Co., Ltd.; hereinafter, abbreviated as hydroxyproline ethyl ester) was added was ingested to the mice of group 2. CE-2 to which 1% by weight of trans-N,O-diacetyl-4-hydroxy-L-proline oleyl ester (manufactured by Nissei Kagaku; hereinafter, abbreviated as diacetylhydroxyproline oleyl ester) was added was ingested to the mice of group 3.
(§3) On the initial day of the test and on the 10th day thereafter, blood was collected from tail vein and blood-sugar level upon non-fasting was measured by a Medisafe Reader GR-101. The mice were fasted for 18 hours during the 10th day to the 11th day after the start of the test and whole blood was collected from descending vena cava to prepare serum. The serum-insulin level was measured by a Levi Insulin Kit Mouse-T. The value was shown by mean value±standard error (n=5) and statistic ratio of risk (p value) was determined by a t-test. With regard to the ingested amounts during the test periods, there was no significant difference among the groups 1 to 3.

[2] = test system: KK-Ay/Ta Jcl mice of a type 2 diabetic model; test: Example 2: non-fasting blood-sugar level in mice fed CE-2 feed with 1% by weight of test substance; type: in vivo; settings: for antidiabetic action (conclusion from Table 3): 10 days; for Blood-Sugar Level, 10th Day of the Test / Blood-Sugar Level, Initial Day of the Test: non-fasting, tail vein blood, mean ± standard error, n=5; for Blood-Sugar Level, Initial Day of the Test: initial day (baseline)
Description: as §1, §2, §3

[3] = test system: KK-Ay/Ta Jcl mice of a type 2 diabetic model; test: Example 1: non-fasting blood-sugar level in mice fed CE-2 feed with 1% by weight of test substance; type: in vivo
Description: (§4) KK-Ay/Ta Jcl mice (Clea Japan, Inc.; male; six weeks age) (15 mice) of a type 2 diabetic model were divided into three groups each comprising five mice and named group 1 to group 3.
(§5) The mice of the groups 1 to 3 were made free to take feed and water. A commercially available feed CE-2 (manufactured by Clea Japan, Inc.) was ingested to the mice of group 1. CE-2 to which 1% by weight of trans-4-hydroxy-L-proline (manufactured by Kyowa Hakko Kogyo; hereinafter, abbreviated as hydroxyproline) was added was ingested to the mice of group 2. CE-2 to which 1% by weight of trans-N-acetyl-4-hydroxy-L-proline (manufactured by Kyowa Hakko Kogyo; hereinafter, abbreviated as N-acetylhydroxyproline) was added was ingested to the mice of group 3.
as §3, with “17th” for “10th”, “GR-101 (manufactured by Thermo Co.).” for “GR-101.”, “18th” for “11th”, “Mouse-T (manufactured by Shibayagi).” for “Mouse-T.”

[4] = test system: KK-Ay/Ta Jcl mice of a type 2 diabetic model; test: Example 3: blood-sugar level after oral glucose load in fasted mice; type: in vivo; settings: 1 g/kg B.W. oral
Protocol: KK-Ay/Ta Jcl mice (Clea Japan, Inc.; male; six weeks age) (16 mice) of a type 2 diabetic model were divided into 2 groups each comprising 8 mice and named group 1 and group 2.
After fasting for 18 hours, a physiological saline solution was orally administered to the mice of the group 1 while, to the mice of the group 2, 1 g/kg body weight (hereinafter, referred to as “B.W.”) of a 20% (w/v) aqueous solution of the N-acetylhydroxyproline (dissolved in a physiological saline solution) was orally administered. After 1 hour, 2 g/kg B.W. of a 40% (w/v) aqueous solution of glucose was orally administered to the mice of the groups 1 and 2 to load with sugar. Blood was collected from tail vein 60 minutes before (−60 minutes) administration of the aqueous glucose solution, upon the administration (0 minute) and 30 and 120 minutes after the administration and blood-sugar levels were measured by a Medisafe Reader GR-101. The value was shown by mean value±standard error (n=8) and statistic ratio of risk (p value) was determined by a t-test.

[5] = test system: KK-Ay/Ta Jcl mice of a type 2 diabetic model; test: Example 1: serum-insulin level after 18 hours fasting in mice fed CE-2 feed with 1% by weight of test substance; type: in vivo
Description: as §4, §5
as §3, with “17th” for “10th”, “GR-101 (manufactured by Thermo Co.).” for “GR-101.”, “18th” for “11th”, “Mouse-T (manufactured by Shibayagi).” for “Mouse-T.”

C2C12 cells = test: Example 6: consumption of glucose of differentiated C2C12 cells (glucose concentration in supernatant); type: cell-based, mouse; settings: for action on insulin effect on muscle (conclusion from Table 8): 100 μg/ml with insulin 0.1 μg/ml; for insulin concentration necessary to achieve the same result if insulin is used solely: relative to 0.1 μg/ml insulin used with 100 μg/ml test substance (1 μg/ml); for Glucose (concentration in supernatant after incubation): 3 days incubation, mean ± standard deviation, n=3
Protocol: Each 1.2×10^5 C2C12 cells (cell strain derived from striated muscles of mouse; Dainippon Pharmaceutical Co., Ltd.) was inoculated on a 12-well plate and incubated at 37° C. for 3 days in a CO2 incubator (5% CO2/95% air) with a DMEM medium (manufactured by Invitrogen) to which 10% fetal bovine serum (manufactured by Invitrogen) was added. When the cells became confluent, the medium was exchanged to a DMEM medium to which 2% horse serum (manufactured by Invitrogen) was added and incubation was further conducted for 4 days to differentiate to myotubes. The medium was exchanged once again with a DMEM medium to which 2% horse serum was added and further incubated for 3 days after addition of bovine insulin (manufactured by Invitrogen) so as to make its final concentration 1 μg/ml or 0.1 μg/ml, a mixture of bovine insulin and trans-4-hydroxy-L-proline methyl ester (manufactured by Kokusan Chemical Co., Ltd.; hereinafter, referred to as hydroxyproline methyl ester) so as to make their final concentrations 0.1 μg/ml and 100 μg/ml, respectively or a mixture of bovine insulin and hydroxyproline ethyl ester so as to make their final concentrations 0.1 μg/ml and 100 μg/ml, respectively. Each of the supernatant liquids after the incubation was recovered and glucose concentration was measured by a Glucose CII Test Wako (manufactured by Wako Pure Chemical Industries, Ltd.) whereby consumption of glucose of the differentiated C2C12 cells was investigated. The values are shown by mean value±standard deviation (n=3, mg/l) and statistic ratio of risk (p value) was determined by a t-test.

[6] = co-presence of 0.1 μg/ml of insulin and 100 μg/ml of test substance, vs insulin 0.1 μg/ml
[7] = test substance 100 μg/ml together with insulin 0.1 μg/ml

| Compound | antidiabetic action by improving insulin resistance (conclusion from Tables 3 and 4) [1] | Serum-Insulin Level [1] [ng/mL] | antidiabetic action (conclusion from Table 3) [2] | Blood-Sugar Level, 10th Day of the Test [2] [mg/dL] | Blood-Sugar Level, Initial Day of the Test [2] [mg/dL] | action on insulin effect on muscle (conclusion from Table 8) (C2C12 cells) | consumption of glucose of C2C12 cells (C2C12 cells; [6]) | insulin concentration necessary to achieve the same result if insulin is used solely (C2C12 cells) | Glucose (concentration in supernatant after incubation) (C2C12 cells; [7]) [mg/L] | also measured |
| --- | --- | --- | --- | --- | --- | --- | --- | --- | --- | --- |
| CCCCCCCC/C=C\CCCCCCCCOC(=O)[C@@H]1C[C@@H](OC(C)=O)CN1C(C)=O (relative stereo) [diacetylhydroxyproline oleyl ester, trans-N,O-diacetyl-4-hydroxy-L-proline oleyl ester] | show an antidiabetic action by improving the insulin resistance | 0.64 ± 0.12 | antidiabetic action | 215.2 ± 20.3 | 241.0 ± 11.0 |  |  |  |  |  |
| CC(=O)N1C[C@H](O)C[C@H]1C(=O)O [N-acetylhydroxyproline, trans-N-acetyl-4-hydroxy-L-proline] |  |  |  |  |  |  |  |  |  | antidiabetic action (conclusion from Table 1) ([3]; 17 days): antidiabetic action; Blood-Sugar Level, 17th Day of the Test ([3]; non-fasting, tail vein blood, 17th day, mean ± standard error, n=5): 226.2 ± 12.9 mg/dL; Blood-Sugar Level, Initial Day of the Test ([3]; non-fasting, tail vein blood, initial day (baseline), mean ± standard error, n=5): 241.0 ± 15.5 mg/dL; antidiabetic action (conclusion from Table 5) ([4]; glucose load): antidiabetic action; Blood-Sugar Level, 30 min ([4]; 30 minutes after glucose 2 g/kg, mean ± standard error, n=8): 407.1 ± 17.1 mg/dL; Blood-Sugar Level, −60 min ([4]; 60 minutes before glucose 2 g/kg (baseline, at dosing), mean ± standard error, n=8): 159.4 ± 5.6 mg/dL; Blood-Sugar Level, 120 min ([4]; 120 minutes after glucose 2 g/kg, mean ± standard error, n=8): 210.4 ± 14.4 mg/dL; Blood-Sugar Level, 0 min ([4]; upon glucose administration 2 g/kg, mean ± standard error, n=8): 179.9 ± 11.6 mg/dL; antidiabetic action by improving insulin resistance (conclusion from Tables 1 and 2) [5]: show an antidiabetic action by improving the insulin resistance; Serum-Insulin Level ([5]; 18th day after 18 hours fasting, mean ± standard error, n=5): 0.69 ± 0.06 ng/mL |
| CCOC(=O)[C@@H]1C[C@@H](O)CN1 [hydroxyproline ethyl ester, trans-4-hydroxy-L-proline ethyl ester] | show an antidiabetic action by improving the insulin resistance | 0.52 ± 0.10 | antidiabetic action | 217.2 ± 11.3 | 253.0 ± 9.5 | potentiate the action of insulin to the muscle | significantly increased | ten-fold | 984 ± 29 |  |
| COC(=O)[C@@H]1C[C@@H](O)CN1 [hydroxyproline methyl ester, trans-4-hydroxy-L-proline methyl ester] |  |  |  |  |  | potentiate the action of insulin to the muscle | significantly increased | ten-fold | 926 ± 47 |  |
| Insulin: bovine insulin (manufactured by Invitrogen) [reference compound] |  |  |  |  |  |  |  |  |  | consumption of glucose of C2C12 cells (C2C12 cells; addition of 0.1 μg/ml of insulin, vs nothing added): significantly promoted; Glucose (concentration in supernatant after incubation) (C2C12 cells; insulin 0.1 μg/ml alone): 1260 ± 15 *^1 mg/; Glucose (concentration in supernatant after incubation) (C2C12 cells; insulin 1 μg/ml alone): 942 ± 34 mg/L |
